Measurements reported in ChEMBL document CHEMBL1142387, “Synthetic homoserine lactone-derived sulfonylureas as inhibitors of Vibrio fischeri quorum sensing regulator” (Bioorg Med Chem, 2008).

biological target: T1, Transcriptional activator protein LuxR (Aliivibrio fischeri, UniProt P12746); test: Antagonist activity at LuxR in Vibrio fischeri assessed as inhibition of N-3-oxos-hexanoyl-L-homoserine lactone induced luminescence; assay type: functional
T1 sequence (P12746 whole entry): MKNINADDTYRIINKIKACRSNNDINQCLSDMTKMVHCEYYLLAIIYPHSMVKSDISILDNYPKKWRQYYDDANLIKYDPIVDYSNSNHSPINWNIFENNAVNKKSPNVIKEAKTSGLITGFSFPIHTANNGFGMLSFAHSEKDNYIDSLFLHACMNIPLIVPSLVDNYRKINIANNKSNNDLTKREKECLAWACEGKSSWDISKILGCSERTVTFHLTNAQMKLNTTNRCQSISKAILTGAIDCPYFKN

Structure (SMILES) | IC50 [µM]
CCCCNC(=O)NC1CCOC1=O (stereo unspecified) | 5
CCCCCCCCNS(=O)(=O)NC1CCOC1=O (stereo unspecified) | 7.2
CCCCCCCCCCNS(=O)(=O)NC1CCOC1=O (stereo unspecified) | 7.8
CCCCCNS(=O)(=O)NC1CCOC1=O (stereo unspecified) | 2
O=C1OCCC1NS(=O)(=O)NCCCc1ccccc1 (stereo unspecified) | 9.4
O=C1OCCC1NS(=O)(=O)NCCc1ccccc1 (stereo unspecified) | 13
CCCCCCNS(=O)(=O)NC1CCOC1=O (stereo unspecified) | 5
CCCCNS(=O)(=O)NC1CCOC1=O (stereo unspecified) | 3.6
O=C1OCCC1NS(=O)(=O)NCCCCc1ccccc1 (stereo unspecified) | 13
CCCCCS(=O)(=O)NC1CCOC1=O (stereo unspecified) | 3
O=C1OCCC1NS(=O)(=O)NCc1ccccc1 (stereo unspecified) | 6.4
